Test results published in patent publication US8658683B2, “Combination of alpha-2 receptor agonist (clonidin) and anti-muscarinic agent (oxybutynin) for the treatment of sialorrhoea” (Orient Pharma (Samoa) Co., Ltd, priority 2006, dated 2014).

How the values were obtained:
[1] = system: patients with Parkinson's disease; conditions: ophthalmic solution given sublingually, cited from earlier work
Parkinson's patients = conditions: 0.15 mg per os, 17 Parkinson's patients; cited from earlier work
healthy male volunteers = experiment: Saxon test of saliva production, open-label rising dose study; assay type: in vivo, human; conditions: for saliva production over time: drug administered alone, pre-dose to 6 h post-dose; for effect of dose on saliva production: drug alone, rising dose levels
Procedure: The study examined the effects of clonidine and oxybutynin on saliva production in 9 healthy male volunteers. This was an open-label, non-randomised, two-period, rising dose study.
The subjects were assessed on each dosing occasion for saliva production pre-dose and 1 h, 2.5 h, 4 h and 6 h post-dose. Vital signs were recorded at specified times during each study period and adverse events were reported throughout.
Using this information, a mixed effects regression analysis of the % reduction in saliva versus dose with subject as a random effect was performed for both clonidine and oxybutynin. From this model, an approximate ED30 and an ED50 were calculated.
The key observation in this study is based on the Saxon test. See Kohler & Winter, Arthritis Rheum.

[2] = system: sialorrhoea induced by clozapine; conditions: in vivo; cited from earlier work
patients = conditions: tablets; cited from earlier work
[3] = system: patients receiving clozapine with excessive drooling; conditions: nasal spray 0.03-0.06% sublingually, 8 patients, after several weeks of use; cited from earlier work

SMILES: CN1[C@@H]2CC[C@H]1C[C@@H](OC(=O)C(CO)c1ccccc1)C2 (stereo partly shown) [atropine]
- patients who suffered hallucinations ([1]; 7 patients): 2 of the 7
- saliva production ([1]; small case study): significant decline in saliva production

SMILES: Clc1cccc(Cl)c1N=C1NCCN1 [clonidine]
- patients who experienced side-effects (Parkinson's patients): Four of the 17
- reduction of sialorrhoea (Parkinson's patients): significantly reduce sialorrhoea
- AUCT of saliva production compared to placebo (healthy male volunteers; 50 mcg clonidine): reduction in AUCTs
- AUCT of saliva production compared to placebo (healthy male volunteers; 100 mcg clonidine): reduction in AUCTs
- saliva production over time (healthy male volunteers): trend towards a reduction in saliva production over time
- effect of dose on saliva production (healthy male volunteers): significant with increasing dose levels
- reduction of sialorrhoea induced by clozapine [2]: effective in reducing sialorrhoea

SMILES: C[N+]1(C)CCC(OC(=O)C(O)(c2ccccc2)C2CCCC2)C1 (stereo not shown) [glycopyrrolate]
- patients by whom the drug is not well tolerated (patients): 20-25 % of patients

SMILES: CC(C)[N+]1(C)[C@@H]2CC[C@H]1C[C@@H](OC(=O)C(CO)c1ccccc1)C2 (stereo partly shown) [ipratropium]
- non-responder patients [3]: 1 patient
- patients with full response [3]: 2 patients
- patients with partial response (symptoms controlled for 2-8 hours) [3]: 5 patients

SMILES: CCN(CC)CC#CCOC(=O)C(O)(c1ccccc1)C1CCCCC1 (stereo not shown) [oxybutynin]
- AUCT of saliva production compared to placebo (healthy male volunteers; 10 mg oxybutynin): AUCT was reduced
- saliva production over time (healthy male volunteers): trend towards a reduction in saliva production over time
- effect of dose on saliva production (healthy male volunteers): no significant effects of dose on saliva production
